Reference: patent publication US6156700A, “3-(1,2-Benzisothiazol- and isoxazol-5-yl)-2,4(1H,3H)-pyrimidinedione or thione and 3-(1,2-benzisothiazol- and isoxazol-5-yl)-4(3H)-pyrimidinone or thione herbicidal agents” (American Cyanmid Company, priority 1998, dated 2000)

What was measured:
Set-up in all cases: scale not given here
CYPIR Rice Flatsedge = experiment: Postemergence weed control, flooded paddy (Table IV); format: in vivo, Cyperus iria
Excerpt: (§1) Plastic containers containing weeds which are 3 to 5 cm tall and rice seedlings at the 1.5 to 2.5 leaf stage are flooded with water. The water is maintained at 1.5 to 3 cm above the soil surface for the duration of the experiment. Test compounds are applied as aqueous/acetone mixtures 50/50 v/v directly into the flood water to provide the equivalent of about 0.0313 to 0.500 kg/ha of active ingredient. The treated containers are placed on greenhouse benches and cared for in accordance with conventional greenhouse procedures. Three to four weeks after treatment, the test is terminated and each container is examined and herbicidal effect rated according to the rating system provided in Example 185. The compounds evaluated are reported by compound number given in Example 185.

CYPSE Flatsedge = experiment: as above; format: in vivo, Cyperus serotinus
Excerpt: as §1

[1] = test system: SAGPY Arrowhead (Pygmaea); experiment: as above; format: in vivo, Sagittaria pygmaea
Excerpt: as §1

ORYSAT Rice, Tebonnet = experiment: Rice tolerance, flooded paddy (Table IV); format: in vivo, Oryza sativa; details: crop tolerance
Excerpt: as §1

[2] = test system: ECHORC Watergrass (Calif.); experiment: Postemergence weed control, flooded paddy (Table IV); format: in vivo, Echinochloa oryzoides
Excerpt: as §1

MOOVA Monochoria = experiment: as above; format: in vivo, Monochoria vaginalis
Excerpt: as §1

| SMILES | herbicidal effect rating (CYPIR Rice Flatsedge; 0.1250 kg/ha) | herbicidal effect rating (CYPIR Rice Flatsedge; 0.2500 kg/ha) | herbicidal effect rating (CYPSE Flatsedge; 0.2500 kg/ha) | herbicidal effect rating ([1]; 0.1250 kg/ha) | herbicidal effect rating (ORYSAT Rice, Tebonnet; 0.1250 kg/ha) | herbicidal effect rating (ORYSAT Rice, Tebonnet; 0.2500 kg/ha) | herbicidal effect rating ([2]; 0.1250 kg/ha) | herbicidal effect rating (CYPSE Flatsedge; 0.1250 kg/ha) | herbicidal effect rating (MOOVA Monochoria; 0.1250 kg/ha) | herbicidal effect rating ([2]; 0.2500 kg/ha) | herbicidal effect rating (MOOVA Monochoria; 0.2500 kg/ha) | herbicidal effect rating ([1]; 0.2500 kg/ha) |
| --- | --- | --- | --- | --- | --- | --- | --- | --- | --- | --- | --- | --- |
| C#CCOC(=O)C(C)(C)Oc1ccc(C)cc1-c1nsc2ccc(-n3c(=O)cc(C(F)(F)F)n(C)c3=O)cc12 [Compound 528, Propionic acid, 2-{{2-{5-[3,6-dihydro-3-methyl-2,6-dioxo-4-(trifluoromethyl)-i(2H)-pyrimidinyl]-1,2-benzisothiazol-3-yl}-p-tolyl}oxy}-2-methyl-, 2-propynyl ester] | 6.0 | 6.0 | 9.0 | 0.0 | 2.0 | 3.0 | – | – | – | – | – | – |
| COCc1nsc2cc(F)c(-n3c(=O)cc(C(F)(F)F)n(C)c3=O)cc12 [Compound 378, 2,4(1H,3H)-Pyrimidinedione, 3-[6-fluoro-3-(methoxymethyl)-1,2-benzisothiazol-5-yl]-1-methyl-6-(trifluoromethyl)-] | 9.0 | – | – | 9.0 | 9.0 | – | 9.0 | 9.0 | 9.0 | – | – | – |
| CON(C)C(=O)COc1ccccc1-c1nsc2ccc(-n3c(=O)cc(C(F)(F)F)n(C)c3=O)cc12 [Compound 354, Acetamide,2-{o-{5-[3,6-dihydro-3-methyl-2,6-dioxo-4-(trifluoromethyl)-1(2H)-pyrimidinyl]-1,2-benzisothiazol-3-yl}phenoxy}-N-methoxy-N-methyl-] | 9.0 | – | – | 9.0 | 6.0 | – | 9.0 | 9.0 | 9.0 | – | – | – |
| CCCCC(=O)c1nsc2ccc(-n3c(=O)cc(C(F)(F)F)n(C)c3=O)cc12 [Compound 431, 2,4(1H,3H)-Pyrimidinedione, 1-methyl-6-(trifluoromethyl)-3-(3-valeryl-1,2-benzisothiazol-5-yl)-] | 9.0 | 9.0 | 4.0 | 0.0 | 3.0 | 7.0 | 9.0 | 0.0 | 9.0 | 9.0 | 9.0 | 4.0 |
| COc1ccc(OC)c(-c2nsc3ccc(-n4c(=O)cc(C(F)(F)F)n(C)c4=O)cc23)c1 [Compound 333, 2,4(1H,3H)-Pyrimidinedione, 3-[3-(2,5-dimethoxyphenyl)-1,2-benzisothiazol-5-yl]-1-methyl-6-(trifluoromethyl)-] | 9.0 | 9.0 | 8.0 | 4.0 | 6.0 | 6.0 | 9.0 | 4.0 | 9.0 | 9.0 | 9.0 | 4.0 |
| COc1cc2c(cc1-c1nsc3ccc(-n4c(=O)cc(C(F)(F)F)n(C)c4=O)cc13)CCC2 [Compound 380, 2,4(1H,3H)-Pyrimidinedione, 3-[3-(6-methoxy-5-indanyl)-1,2-benzisothiazol-5-yl]-1-methyl-6-(trifluoromethyl)-] | 9.0 | 9.0 | 8.0 | 2.0 | 7.0 | 7.0 | 9.0 | 2.0 | 9.0 | 9.0 | 9.0 | 8.0 |
| Cc1ccc(OCC(=O)OCC2(c3ccccc3)CC2)c(-c2nsc3ccc(-n4c(=O)cc(C(F)(F)F)n(C)c4=O)cc23)c1 [Compound 517, Acetic acid, {{2-{5-[3,6-dihydro-3-methyl-2,6-dioxo-4-(trifluoromethyl)-1(2H)-pyrimidinyl]-1,2-benzisothiazol-3-yl}-p-tolyl}oxy}-, (1-phenylcyclopropyl)methyl ester] | 9.0 | 9.0 | – | – | 0.0 | 0.0 | 0.0 | 0.0 | – | 0.0 | – | – |
| COc1ccc(I)cc1-c1nsc2ccc(-n3c(=O)cc(C(F)(F)F)n(C)c3=O)cc12 [Compound 448, 2,4(1H,3H)-Pyrimidinedione, 3-[3-(5-iodo-2-methoxyphenyl)-1,2-benzisothiazol-5-yl]-1-methyl-6-(trifluoromethyl)-] | 7.0 | 9.0 | 0.0 | 0.0 | 1.0 | 2.0 | 1.0 | 0.0 | 1.0 | 2.0 | 4.0 | 0.0 |
| Cn1c(C(F)(F)F)cc(=O)n(-c2ccc3snc(C(=O)C(C)(C)C)c3c2)c1=O [Compound 432, 2,4(1H,3H)-Pyrimidinedione, 1-methyl-3-(3-pivaloyl-1,2-benzisothiazol-5-yl)-6-(trifluoromethyl)-] | 9.0 | 9.0 | 9.0 | 2.0 | 7.0 | 7.0 | 9.0 | 7.0 | 9.0 | 9.0 | 9.0 | 4.0 |
| COC(=O)COc1ccc(C)cc1-c1noc2cc(F)c(-n3c(=O)cc(C(F)(F)F)n(C)c3=O)cc12 [Compound 359, Acetic acid, {{2-{5-[3,6-dihydro-3-methyl-2,6-dioxo-4-(trifluoromethyl)-1(2H)-pyrimidinyl]-6-fluoro-1,2-benzisoxazol-3-yl}-p-tolyl}oxy}-, methyl ester] | 9.0 | – | – | 0.0 | 4.0 | – | 6.0 | 0.0 | 9.0 | – | – | – |
| COC(=O)COc1ccc(C)cc1-c1noc2ccc(-n3c(=O)cc(C(F)(F)F)n(C)c3=O)c(Cl)c12 [Compound 261, Acetic acid,{{2-{4-chloro-5-[3,6-dihydro-3-methyl-2,6-dioxo-4-(trifluoromethyl)-1(2H)-pyrimidinyl]-1,2-benzisoxazol-3-yl}-p-tolyl}oxy}-, methyl ester] | 6.0 | 6.0 | 0.0 | 0.0 | 0.0 | 0.0 | 0.0 | 0.0 | 9.0 | 0.0 | 9.0 | 0.0 |
| CC(C)Oc1cccc(-c2nsc3ccc(-n4c(=O)cc(C(F)(F)F)n(C)c4=O)cc23)c1 [Compound 328, 2,4(1H,3H)-Pyrimidinedione, 3-[3-(m-isopropoxyphenyl)-1,2-benzisothiazol-5-yl]-1-methyl-6-(trifluoromethyl)-] | 9.0 | 9.0 | 6.0 | 2.0 | 4.0 | 4.0 | 9.0 | 6.0 | 9.0 | 9.0 | 9.0 | 6.0 |
| CC(C)S(=O)(=O)NC(=O)c1nsc2ccc(-n3c(=O)cc(C(F)(F)F)n(C)c3=O)cc12 [Compound 362, 1,2-Benzisothiazole-3-carboxamide,5-[3,6-dihydro-3-methyl-2,6-dioxo-4-(trifluoromethyl)-1(2H)-pyrimidinyl]-N-(isopropylsulfonyl)-] | 8.0 | 4.0 | 9.0 | 4.0 | 3.0 | 6.0 | 7.0 | 9.0 | 9.0 | 9.0 | 9.0 | 8.0 |
| CCOC(=O)COc1ccc(C)cc1-c1nsc2ccc(-n3c(=O)cc(C(F)(F)F)n(C)c3=O)cc12 [Compound 49, Ethyl {{2-{5-[3,6-dihydro-3-methyl-2,6-dioxo-4-(trifluoromethyl)-1(2H)-pyrimidinyl]-1,2-benzisothiazol-3-yl}-p-tolyl}oxy}acetate] | 4.0 | 6.0 | 0.0 | 0.0 | 0.0 | 0.0 | 9.0 | 0.0 | 9.0 | 9.0 | 9.0 | 0.0 |
